Holding throughout (assay): NCI tumour cell line growth inhibition, 48 h
The subject of experiment [1] is A498 renal.
In experiment [2] the test system is HL-60(TB) leukemia.
The test system of experiment [3] is K-562 leukemia.
Experiment [4] relates to MOLT-4 leukemia.
Experiment [5] deals with NCI-H522 lung.
In experiment [6] the test system is OVCAR-4 ovarian.
Experiment [7] concerns SF-268 CNS.
In experiment [8] the test system is SK-MEL-28 melanoma.
For experiment [9], the system named is T-47D breast.
The subject of experiment [10] is EKVX NSCLC.

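48-hour exposure; five concentrations; linearly interpolated endpoints. GI50 = concentration required for 50% inhibition of growth. TGI: concentration producing complete growth inhibition.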

In the case of `c1cc(N[C@@H]2CCNC2)nc(-c2cnc3ccc(-c4cn[nH]c4)cn23)c1`, the GI50 is 7.01 µM in [1]; 22.1 µM in experiment [2]; 3.63 µM in experiment [3]; 4.39 µM in experiment [4]; 0.916 µM in [5]; 2.84 µM in [6]. In addition, the GI50 was 2.18 µM in [7], 4.35 µM in experiment [8] and 2.04 µM in [9]. Also, the TGI in experiment [1] was 29 µM; in experiment [2], 66.6 µM; in [3] it was above 55.6 µM; in experiment [4], 51.6 µM; in [5], 3.55 µM; in experiment [6], 9.92 µM. In addition, the TGI in [7] worked out at 7.1 µM; in experiment [8], 16.9 µM; in experiment [9], 9.3 µM.

For `O=C(CS(=O)(=O)c1nc2ccccc2nc1-c1ccccc1)Nc1ccc(F)cc1`, the GI50 was 21.6 µM in experiment [1]; above 100 µM in [10]; 1.8 µM in experiment [2]; 3.83 µM in experiment [3]; 48.2 µM in experiment [5]; 21.6 µM in [6]. In addition, the GI50 in [7] was 91.8 µM; in experiment [8] it was above 100 µM; in experiment [9], 56.6 µM. The TGI was above 100 µM in experiment [1]; above 100 µM in experiment [10]; 10.3 µM in experiment [2]; 16.6 µM in experiment [3]; above 100 µM in experiment [5]; 49.4 µM in [6]. Moreover, the TGI in experiment [7], in experiment [8] and in experiment [9] was above 100 µM in each case.

`O=C1NC(=NCc2ccccc2Cl)S/C1=C\c1ccc2ncccc2c1`: the GI50 in experiment [1] was 4.21 µM; in [2] it was 10.1 µM; in [3], 12.7 µM; in experiment [4], above 25 µM; in experiment [5] it was 4.75 µM; in experiment [6], 14.7 µM. The GI50 in experiment [7] is 18.9 µM; in experiment [8] it was above 25 µM; in experiment [9], above 25 µM. Also, the TGI in [1] was above 21.5 µM; in experiment [2], above 25 µM; in [3] it was above 25 µM; in experiment [4], above 25 µM; in experiment [5], above 17.9 µM; in experiment [6], above 25 µM. For the same compound, the TGI in experiment [7], in experiment [8] and in experiment [9] was above 25 µM throughout.

Consider `O=C(O)C1=C/C(=C(/c2ccccc2)c2cc(C(=O)O)c(O)c3ccccc23)c2ccccc2C1=O`, for which the TGI in experiment [1], in experiment [10], in experiment [3], in [4], in [5] and in experiment [6] was above 100 µM throughout. In addition, the TGI in experiment [7], in experiment [8] and in experiment [9] was above 100 µM each time.

With `O=C1NC(=NCCc2ccc(F)cc2)S/C1=C\c1ccc2ncccc2c1`, the GI50 in [1], in experiment [2], in experiment [3], in [4], in [5] and in experiment [6] was above 25 µM throughout. The GI50 in experiment [7], in [8] and in experiment [9] was above 25 µM throughout. The TGI in experiment [1], in experiment [2], in experiment [3], in experiment [4], in [5] and in [6] was above 25 µM throughout. Further, the TGI in experiment [7], in [8] and in experiment [9] was above 25 µM throughout.

For `C/C(=N\O)c1ccc2ccc3ccccc3c2c1`, the TGI in experiment [10] was above 100 µM; in experiment [2], 66.6 µM; in experiment [3], 93 µM; in experiment [4], 52.9 µM; in experiment [5], 72.7 µM; in experiment [6], 66.5 µM. Also, the TGI in experiment [7], in experiment [8] and in experiment [9] was above 100 µM each time.

With `Cc1cc(=O)oc2ccc(OC/C=C3\CCC(=O)O3)cc12`, the GI50 was 12.3 µM in [1]; 18.7 µM in experiment [10]; 7.79 µM in experiment [3]; 3.05 µM in experiment [4]; 1.65 µM in experiment [5]; 1.21 µM in experiment [6]. For the same compound, the values for the GI50 in [7], in experiment [8] and in experiment [9] were 13.2 µM, 11.3 µM and 2.6 µM, respectively. The TGI is 50.6 µM in experiment [1]; 45.6 µM in [10]; above 100 µM in experiment [3]; above 100 µM in experiment [4]; 3.57 µM in experiment [5]; 3.13 µM in [6]. The values for the TGI in experiment [7], in [8] and in experiment [9] were 43.6 µM, 23.5 µM and 19.6 µM, respectively.

Regarding `Cn1cc(/C=C\[N+](=O)[O-])c2ccccc21`, the GI50 in [1] was 3.36 µM; in [10], above 100 µM; in experiment [3] it was 34.8 µM; in experiment [4], 23.7 µM; in experiment [5], above 100 µM; in experiment [7], above 100 µM. For the same compound, the GI50 in experiment [8] is 23.3 µM; in experiment [9] it was 55.6 µM. Moreover, the TGI in experiment [1] is 7.39 µM; in [10], above 100 µM; in experiment [3] it was above 100 µM; in experiment [4], 58.4 µM; in experiment [5] it was above 100 µM; in [7], above 100 µM. Also, the TGI in [8] was 50.3 µM; in [9] it was above 100 µM.

Take `COc1cc(-c2cc(/C=C/C(=O)c3ccc(F)c(F)c3)[nH]n2)cc(OC)c1OC`: the GI50 is 2.11 µM in experiment [1]; 2.48 µM in experiment [2]; 3.31 µM in [3]; 2.72 µM in [4]; 1.57 µM in experiment [5]; 2.2 µM in experiment [6]. For the same compound, the GI50 is 3.15 µM in experiment [7], 5.31 µM in [8] and 2.45 µM in experiment [9]. The TGI turned out to be 7.13 µM in [1]; 6.03 µM in experiment [2]; 16.5 µM in experiment [3]; 9.09 µM in [4]; 4.48 µM in experiment [5]; 71.7 µM in experiment [6]. Further, the TGI in experiment [7] is above 100 µM; in [8], 28.2 µM; in [9] it was 27 µM.

The values above are taken from PubChem BioAssay (NCI).
